From patent US9382208B1, “Negative allosteric modulators of metabotropic glutamate receptor 2” (Vanderbilt University, priority 2015, dated 2016)

Biological target: T1, rat mGlu2 (Rattus norvegicus, UniProt P31421)
T1 construct: expressed in transfected cells
Assay: mGlu2 Ca2+ flux assay
Assay type: cell-based
Details: for IC50: Gα15 HEK293 cells stably expressing rat mGlu2, glutamate EC80 addition, read-out: rat mGlu2 IC50; for remaining activity at 30 µM: amplitude of response in the presence of 30 μM test compound as percentage of maximal response to glutamate, read-out: rat mGlu2 Glu max (%)
Procedure: Gα15 HEK293 cells stably expressing rat mGlu2 were plated in black-walled, clear-bottomed, poly-D-lysine coated 384-well plates in 20 μL of assay medium (DMEM containing 10% dialyzed FBS, 20 mM HEPES, and 1 mM sodium pyruvate) at a density of 12K cells/well. The cells were grown overnight at 37° C. in the presence of 5% CO2. The next day, medium was removed and the cells incubated with 20 μL of 2.3 μM Fluo-4, AM prepared as a 2.3 mM stock in DMSO and mixed in a 1:1 ratio with 10% (w/v) pluronic acid F-127 and diluted in assay buffer (Hank's balanced salt solution, 20 mM HEPES, and 2.5 mM probenecid) for 45 minutes at 37° C. Dye was removed, 20 μL of assay buffer was added, and the plate was incubated for 5 minutes at room temperature.
Ca^2+ flux was measured using the Functional Drug Screening System (FDSS7000, Hamamatsu, Japan). After establishment of a fluorescence baseline for about 3 seconds, the compounds of the present invention were added to the cells, and the response in cells was measured. 2.3 minutes later an EC20 concentration of the mGlu2 receptor agonist glutamate was added to the cells, and the response of the cells was measured for 1.9 minutes; an EC80 concentration of agonist was added and readings taken for an additional 1.7 minutes. All test compounds were dissolved and diluted to a concentration of 10 mM in 100% DMSO. Compounds were then serially diluted 1:3 in DMSO into 10 point concentration response curves, transferred to daughter plates, and further diluted into assay buffer to a 2× stock. Calcium fluorescence measures were recorded as fold over basal fluorescence; raw data was then normalized to the maximal response to glutamate. Antagonism of the agonist response of the mGlu2 receptor in the present invention was observed as a decrease in response to nearly maximal concentrations of glutamate in the presence of compound compared to the response to glutamate in the absence of compound.
The raw data file containing all time points was used as the data source in the analysis template. This was saved by the FDSS as a tab-delimited text file. Data were normalized using a static ratio function (F/F0) for each measurement of the total 360 values per well divided by each well's initial value. Data were then reduced to peak amplitudes (Max−Initial Min) using a time range that starts approximately 3 seconds prior to the glutamate EC80 addition and continues for approximately 90 seconds. This is sufficient time to capture the peak amplitude of the cellular calcium response. Individual amplitudes were expressed as % ECMax by multiplying each amplitude by 100 and then dividing the product by the mean of the amplitudes derived from the glutamate ECMax-treated wells. IC50 values for test compounds were generated by fitting the normalized values versus the log of the test compound concentration (in mol/L) using a 4 parameter logistic equation where none of the parameters were fixed. Each of the three values collected at each concentration of test compound were weighted evenly.
For NAMs, potency (IC50) and maximum response (% Glu Max), i.e. the amplitude of response in the presence of 30 μM test compound as a percentage of the maximal response to glutamate, are reported. […] Compounds with no measurable activity are designated as “>30,000 nM” since the top concentration of compound tested in the assay is 30 μM.

T1 sequence (P31421 19-872): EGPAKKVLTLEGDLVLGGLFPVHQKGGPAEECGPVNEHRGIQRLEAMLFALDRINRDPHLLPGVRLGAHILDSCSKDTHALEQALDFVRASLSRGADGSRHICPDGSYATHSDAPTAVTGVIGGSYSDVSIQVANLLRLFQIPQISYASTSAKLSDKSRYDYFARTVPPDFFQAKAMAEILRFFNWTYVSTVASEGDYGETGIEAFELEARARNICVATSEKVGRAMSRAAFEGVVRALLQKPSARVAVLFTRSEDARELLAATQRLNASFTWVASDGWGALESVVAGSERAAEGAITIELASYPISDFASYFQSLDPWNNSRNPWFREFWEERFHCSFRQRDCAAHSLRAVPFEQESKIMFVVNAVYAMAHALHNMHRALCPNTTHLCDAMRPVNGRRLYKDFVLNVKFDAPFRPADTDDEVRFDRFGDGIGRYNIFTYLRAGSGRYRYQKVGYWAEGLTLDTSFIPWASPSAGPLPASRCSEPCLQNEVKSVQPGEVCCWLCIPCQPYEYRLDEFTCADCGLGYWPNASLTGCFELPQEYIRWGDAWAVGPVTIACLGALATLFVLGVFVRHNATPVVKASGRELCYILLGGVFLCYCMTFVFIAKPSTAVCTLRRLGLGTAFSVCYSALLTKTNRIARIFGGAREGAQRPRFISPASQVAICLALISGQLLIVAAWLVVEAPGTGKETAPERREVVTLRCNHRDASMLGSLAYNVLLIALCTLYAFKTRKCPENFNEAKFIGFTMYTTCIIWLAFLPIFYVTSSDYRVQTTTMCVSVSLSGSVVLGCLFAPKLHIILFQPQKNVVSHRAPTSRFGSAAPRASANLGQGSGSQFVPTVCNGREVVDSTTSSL

| SMILES | IC50 [nM] | remaining activity at 30 µM [%] |
| --- | --- | --- |
| Cc1ccc(Oc2ccc3c(c2)c(=O)c(C(N)=O)cn3-c2ccc(F)cc2)cn1 [Compound 55, 1-(4-Fluorophenyl)-6-((6-methylpyridin-3-yl)oxy)-4-oxo-1,4-dihydroquinoline-3-carboxamide] | 1710 | 1.96 |
| NC(=O)c1cn(-c2ccc(F)cc2)c2ccc(Oc3ccc(F)nc3)cc2c1=O [Compound 58, 1-(4-fluorophenyl)-6-((6-fluoropyridin-3-yl)oxy)-4-oxo-1,4-dihydroquinoline-3-carboxamide] | 1360 | 1.18 |
| NC(=O)c1cn(-c2ccc(F)cc2)c2ccc(Oc3cncc(F)c3)cc2c1=O [Compound 59, 1-(4-fluorophenyl)-6-((5-fluoropyridin-3-yl)oxy)-4-oxo-1,4-dihydroquinoline-3-carboxamide] | 2110 | 0.44 |
| NC(=O)c1cn(-c2ccc(F)cc2)c2ccc(-c3cccnc3)cc2c1=O [Compound 60, 1-(4-fluorophenyl)-4-oxo-6-(pyridin-3-yl)-1,4-dihydroquinoline-3-carboxamide] | 277 | 1.33 |
| Cc1ncc(-c2ccc3c(c2)c(=O)c(C(N)=O)cn3-c2ccc(F)cc2)cn1 [Compound 62, 1-(4-fluorophenyl)-6-(2-methylpyrimidin-5-yl)-4-oxo-1,4-dihydroquinoline-3-carboxamide] | > 10000 | 30.3 |
| NC(=O)c1cn(-c2ccc(F)cc2)c2ccc(-c3ccncc3)cc2c1=O [Compound 63, 1-(4-fluorophenyl)-4-oxo-6-(pyridin-4-yl)-1,4-dihydroquinoline-3-carboxamide] | 407 | 0.97 |
| NC(=O)c1cn(-c2ccc(F)cc2)c2ccc(CN3CCN(C4CC4)CC3)cc2c1=O [Compound 66, 6-((4-cyclopropylpiperazin-1-yl)methyl)-1-(4-fluorophenyl)-4-oxo-1,4-dihydroquinoline-3-carboxamide] | 1290 | 1.89 |
| NC(=O)c1cn(-c2ccc(F)cc2)c2ccc(CN3CCCC4CCCCC43)cc2c1=O (stereo not shown) [Compound 67, 1-(4-fluorophenyl)-6-((octahydroquinolin-1(2H)-yl)methyl)-4-oxo-1,4-dihydroquinoline-3-carboxamide] | 617 | 2.4 |
| NC(=O)c1cn(-c2ccc(F)cc2)c2ccc(CN3CCCOCC3)cc2c1=O [Compound 72, 6-((1,4-oxazepan-4-yl)methyl)-1-(4-fluorophenyl)-4-oxo-1,4-dihydroquinoline-3-carboxamide] | > 10000 | 29.6 |
| N#CC1CCN(Cc2ccc3c(c2)c(=O)c(C(N)=O)cn3-c2ccc(F)cc2)CC1 [Compound 75, 6-((4-cyanopiperidin-1-yl)methyl)-1-(4-fluorophenyl)-4-oxo-1,4-dihydroquinoline-3-carboxamide] | 735 | 1.02 |
| NC(=O)c1cn(-c2ccc(F)cc2)c2ccc(CN3CCC(F)(F)CC3)cc2c1=O [Compound 78, 6-((4,4-difluoropiperidin-1-yl)methyl)-1-(4-fluorophenyl)-4-oxo-1,4-dihydroquinoline-3-carboxamide] | 197 ± 91 | 1.59 ± 0.27 |

Further molecules by falling IC50, results first:

| IC50 [nM] | remaining activity at 30 µM [%] | SMILES |
| --- | --- | --- |
| 4480 | 15.7 | Cc1ncc(Oc2ccc3c(c2)c(=O)c(C(N)=O)cn3-c2ccc(F)cc2)cn1 [Compound 57, 1-(4-fluorophenyl)-6-((2-methylpyrimidin-5-yl)oxy)-4-oxo-1,4-dihydroquinoline-3-carboxamide] |
| 4040 | 2.47 | CC1CCN(C)CCN1Cc1ccc2c(c1)c(=O)c(C(N)=O)cn2-c1ccc(F)cc1 (stereo not shown) [Compound 68, 6-((4,7-dimethyl-1,4-diazepan-1-yl)methyl)-1-(4-fluorophenyl)-4-oxo-1,4-dihydroquinoline-3-carboxamide] |
| 2700 | 1.02 | Cc1ncc(CCc2cc3c(=O)c(C(N)=O)cn(-c4ccc(F)cc4)c3cc2F)cn1 [Compound 54, 7-fluoro-1-(4-fluorophenyl)-6-(2-(2-methylpyrimidin-5-yl)ethyl)-4-oxo-1,4-dihydroquinoline-3-carboxamide] |
| 2590 | 0.96 | NC(=O)c1cn(-c2ccc(F)cc2)c2ccc(CN3CCCCCC3)cc2c1=O [Compound 73, 6-(azepan-1-ylmethyl)-1-(4-fluorophenyl)-4-oxo-1,4-dihydroquinoline-3-carboxamide] |
| 2190 | 1.39 | CN(Cc1ccc2c(c1)c(=O)c(C(N)=O)cn2-c1ccc(F)cc1)C1CCCC1 [Compound 69, 6-((cyclopentyl(methyl)amino)methyl)-1-(4-fluorophenyl)-4-oxo-1,4-dihydroquinoline-3-carboxamide] |
| 2020 | 1.93 | NC(=O)c1cn(-c2ccc(F)cc2)c2ccc(CN3CC4(C3)CC(F)(F)C4)cc2c1=O [Compound 65, 6-((6,6-difluoro-2-azaspiro[3.3]heptan-2-yl)methyl)-1-(4-fluorophenyl)-4-oxo-1,4-dihydroquinoline-3-carboxamide] |
| 1880 | 1.23 | COC1CCN(Cc2ccc3c(c2)c(=O)c(C(N)=O)cn3-c2ccc(F)cc2)CC1 [Compound 74, 1-(4-fluorophenyl)-6-((4-methoxypiperidin-1-yl)methyl)-4-oxo-1,4-dihydroquinoline-3-carboxamide] |
| 1120 | 1.29 | CS(=O)(=O)C1CCN(Cc2ccc3c(c2)c(=O)c(C(N)=O)cn3-c2ccc(F)cc2)CC1 [Compound 76, 1-(4-fluorophenyl)-6-((4-(methylsulfonyl)piperidin-1-yl)methyl)-4-oxo-1,4-dihydroquinoline-3-carboxamide] |
| 882 ± 160 | 1.84 ± 0.47 | NC(=O)c1cn(-c2ccc(F)cc2)c2ccc(Oc3cccnc3)cc2c1=O [Compound 56, 1-(4-fluorophenyl)-4-oxo-6-(pyridin-3-yloxy)-1,4-dihydroquinoline-3-carboxamide] |
| 823 | 1.41 | NC(=O)c1cn(-c2ccc(F)cc2)c2ccc(CN3CCC(C(F)(F)F)CC3)cc2c1=O [Compound 77, 1-(4-fluorophenyl)-4-oxo-6-((4-(trifluoromethyl)piperidin-1-yl)methyl)-1,4-dihydroquinoline-3-carboxamide] |
| 821 | 1.33 | CN(Cc1ccc2c(c1)c(=O)c(C(N)=O)cn2-c1ccc(F)cc1)C1CC1 [Compound 70, 6-((cyclopropyl(methyl)amino)methyl)-1-(4-fluorophenyl)-4-oxo-1,4-dihydroquinoline-3-carboxamide] |
| 659 | 1.04 | NC(=O)c1cn(-c2ccc(F)cc2)c2ccc(NCC3CCOCC3)cc2c1=O [Compound 53, 1-(4-fluorophenyl)-4-oxo-6-(((tetrahydro-2H-pyran-4-yl)methyl)amino)-1,4-dihydroquinoline-3-carboxamide] |
| 544 | 0.41 | Cn1cc(-c2ccc3c(c2)c(=O)c(C(N)=O)cn3-c2ccc(F)cc2)cn1 [Compound 61, 1-(4-fluorophenyl)-6-(1-methyl-1H-pyrazol-4-yl)-4-oxo-1,4-dihydroquinoline-3-carboxamide] |
| 222 ± 36 | 1.42 ± 0.51 | C[C@@H]1CN(Cc2ccc3c(c2)c(=O)c(C(N)=O)cn3-c2ccc(F)cc2)C[C@H](C)O1 [Compound 64, 6-((cis-2,6-Dimethylmorpholino)methyl)-1-(4-fluorophenyl)-4-oxo-1,4-dihydroquinoline-3-carboxamide] |
| 164 | 2.06 | NC(=O)c1cn(-c2ccc(F)cc2)c2ccc(CN3CCCSCC3)cc2c1=O [Compound 71, 6-((1,4-thiazepan-4-yl)methyl)-1-(4-fluorophenyl)-4-oxo-1,4-dihydroquinoline-3-carboxamide] |
